# Measurements as given in US5416070A, “Composition for macrophage activation” (ImmunoTherapeutics, Inc., priority 1990, dated 1995).
# Tested on: human peripheral blood monocytes
# Assay: Activation of monocytes in vitro measured by production of tumor necrosis factor (ELISA)
# Assay type: cell-based
# Settings: for TNF (pg/ml) at given Concentration of Compound: 24 Hours
# Experimental: (§1) Human peripheral blood monocytes were isolated by density gradient centrifugation as noted in Example 13. The cell number was adjusted to 5×10^5 cells per ml in RPM 1640 media containing 5% human AB negative serum. One ml containing 5×10^5 cells were placed in individual wells of a 24-well Plastek tissue culture plate. Various drugs in a volume of 0.5 ml were added at time zero. The cells were incubated at 37° C. in a 5% CO2 atmosphere. Aliquots (0.1 ml) of the supernatant were removed at 24 hours and frozen at -80° C. These samples were subsequently assayed for tumor necrosis factor (TNF) activity using a commercially available ELISA Assay from T-Cell Sciences (Cambridge, Mass.).
# Human peripheral blood monocytes were isolated by density gradient centrifugation as described in Example 13. The cells were plated in 24-well microliter plates as described in Example 33. The compounds Were prepared in liposomes as described in Example 10, and assayed for TNF production, as described in Example 33. The results are set forth in Table 5, and show significant levels of TNF compared to controls.
# as §1, with “of” for “of a”, “zero. The compounds were also formulated in liposomes as described in Example 10, and added in a volume of 0.5 ml to individual wells of a 24-well Plastek tissue culture plate.” for “zero.”, “-20°” for “-80°”, “TNF as described in Example 33 and Interleukin-1-beta (IL-1β)” for “tumor necrosis factor (TNF) activity”, “kit” for “Assay”, “Cistron (Pine Brook, N.J.).” for “T-Cell Sciences (Cambridge, Mass.).”
structure (smiles),measurement,setting,value
"CCCCCCCCCCCCCCCC(=O)OCC(COC(=O)C(C)NC(=O)CCC(NC(=O)C(C)NC(=O)C(C)OC1C(NC(C)=O)C(O)OC(CO)C1OC1OC(CO)C(O)C(O)C1NC(C)=O)C(N)=O)OC(=O)CCCCCCCCCCCCCCC [Compound IIA, 4-O-[2-acetamido-2-deoxy-β-D-glucopyranosyl]-2-acetamido-2-deoxy-3-O-[D-2-propanoyl-L-alanyl-D-isoglutaminyl-L-alanyl-1,2-dipalmitoyl-sn-glycerol]-D-glucopyranose]",TNF Level,"Experiment 1, free drug in saline 0.1 μg/ml, 24 hours",1760 pg/mL
same,TNF Level,"Experiment 1, free drug in saline 1.0 μg/ml, 24 hours",1600 pg/mL
same,TNF Level,"Experiment 1, free drug in saline 10.0 μg/ml, 24 hours",4550 pg/mL
same,TNF Level,"Experiment 2, free drug in saline 0.1 μg/ml, 24 hours",1450 pg/mL
same,TNF Level,"Experiment 2, free drug in saline 1.0 μg/ml, 24 hours",1580 pg/mL
same,TNF Level,"Experiment 2, free drug in saline 10.0 μg/ml, 24 hours",1630 pg/mL
same,TNF Level,"Experiment 3, free drug in saline 0.1 μg/ml, 24 hours",1450 pg/mL
same,TNF Level,"Experiment 3, free drug in saline 1.0 μg/ml, 24 hours",1650 pg/mL
same,TNF Level,"Experiment 3, free drug in saline 10.0 μg/ml, 24 hours",1800 pg/mL
same,TNF Level,"Table 5, compound incorporated in liposomes, 0.1 μg/ml",1270 pg/mL
same,TNF Level,"Table 5, compound incorporated in liposomes, 1.0 μg/ml",850 pg/mL
same,TNF Level,"Table 5, compound incorporated in liposomes, 10.0 μg/ml",1050 pg/mL
same,TNF (pg/ml) at given Concentration of Compound,"Table 7, Experiment 1, 0.01 μg/ml",650 pg/mL
same,TNF (pg/ml) at given Concentration of Compound,"Table 7, Experiment 1, 0.1 μg/ml",460 pg/mL
same,TNF (pg/ml) at given Concentration of Compound,"Table 7, Experiment 1, 1.0 μg/ml",620 pg/mL
same,TNF (pg/ml) at given Concentration of Compound,"Table 7, Experiment 1, 10.0 μg/ml",500 pg/mL
same,TNF (pg/ml) at given Concentration of Compound,"Table 9, Experiment 2, 0.1 μg/ml",1400 pg/mL
same,TNF (pg/ml) at given Concentration of Compound,"Table 9, Experiment 2, 1.0 μg/ml",1700 pg/mL
same,TNF (pg/ml) at given Concentration of Compound,"Table 9, Experiment 2, 10.0 μg/ml",1070 pg/mL
